In patent US10864178B2, “Pharmaceutical composition for treatment of cancer containing polyphenol compound as active ingredient” (priority 2016, dated 2020):

Columns and labels:
[1] = tested on: PAGS (parental AGS); experiment: Proliferation inhibition, parental AGS cells; type: cell-based; conditions: Homo sapiens, read-out: IC50 concentration
Description: (§1) First, in order to examine the growth inhibitory effect of gossypol against stomach cancer stem cells, two types of common stomach cancer cells (AGS and MKN-74) and two types of stomach cancer stem cells (MKN-1 and SNU-484) were prepared. Each type of cells was cultured in a 96-well plate at a density of 1×10^3 to 1×10^4 cells/well for 24 hours, and treated with 0, 10, 20, 40 or 60 μM of gossypol, and then further cultured for 48 hours. […] Based on the measured absorbance, the IC50 concentration of gossypol, at which the survival rate of each type of cells, is measured, and the results are shown in FIGS. 6 and 7.
(§2) On selected AGS cells (hereinafter referred to as SAGS (selected AGS), Cell Death Dis. 2015 Jul. 2; 6:e1805) selected from the common stomach cancer cell line AGS (hereinafter referred to as PAGS (parental AGS)) by analyzing phenotypes, including the cancer stem cell marker expression, tumor spheroid formation and standard anticancer agent resistance of cancer cells that survived under 4 weeks of continuous metabolic stress, and tumor formation in immunosuppressed mice, the growth inhibitory effects of gossypol were examined. Cell culture and survival rate measurement methods were performed in the same manner as Example 2-1.

[2] = tested on: stomach cancer stem cells (MKN-1 and SNU-484); experiment: Proliferation inhibition, average over stomach cancer stem cells; type: cell-based; conditions: average of MKN-1 and SNU-484; read-out: IC50 concentration, average
Description: as §1

[3] = tested on: AGS; experiment: Proliferation inhibition, sulforhodamine B assay; type: cell-based; conditions: Homo sapiens, 48 hours treatment
Description: (§3) In order to examine the proliferation inhibitory effects of gossypol against stomach cancer cell lines, 6 different stomach cancer cell lines (MKN28, MKN45, AGS, SNU668, Kato3 and HS746T) were prepared. The definition of cell lines known in the Korean Cell Line Bank or the American Type Culture Collection (ATCC) is described in Table 1 below.
(§4) Each of the 6 different cell lines (1×10^3 to 1×10^4 cells/well) was cultured in a 96-well plate for 24 hours, and treated with 0, 10, 20, 40 or 60 μM of gossypol, and then further cultured for 48 hours.

[4] = tested on: Kato3; experiment: Proliferation inhibition, sulforhodamine B assay; type: cell-based; conditions: Homo sapiens, 48 hours treatment
Description: as §3, §4

[5] = tested on: HS746T; experiment: Proliferation inhibition, sulforhodamine B assay; type: cell-based; conditions: Homo sapiens, 48 hours treatment
Description: as §3, §4

[6] = tested on: SNU668; experiment: Proliferation inhibition, sulforhodamine B assay; type: cell-based; conditions: Homo sapiens, 48 hours treatment
Description: as §3, §4

[7] = tested on: MKN28; experiment: Proliferation inhibition, sulforhodamine B assay; type: cell-based; conditions: Homo sapiens, MKN-28, 48 hours treatment
Description: as §3, §4

[8] = tested on: MKN45; experiment: Proliferation inhibition, sulforhodamine B assay; type: cell-based; conditions: Homo sapiens, MKN-45, 48 hours treatment
Description: as §3, §4

[9] = tested on: stomach cancer cell lines (MKN28, MKN45 and SNU668); experiment: ATP synthesis inhibition (Promega ATP assay kit); type: cell-based, Human; conditions: 0, 10 or 20 μM of gossypol, 48 hours
Description: ATP (adenosine triphosphate) is an energy source for organisms, and inhibition of intracellular ATP synthesis leads to a decrease in energy metabolism activity. The ATP synthesis inhibitory effects of gossypol on the stomach cancer cell lines (MKN28, MKN45 and SNU668) described in Example 1-1 were examined.
Each of MKN28, MKN45 and SNU668 cell lines (1×10^3 to 1×10^4 cells/plate) was cultured in a 60 mm culture dish for 24 hours, treated with 0, 10 or 20 μM of gossypol, and then additionally cultured for 48 hours. Next, the cells were harvested, counted, diluted in 100 μl of RPMI buffer containing 10 vol % FBS, and then transferred to each well of 96-well plate. To each well containing the cells, 100 μl of assay buffer (rL/L reagent+reconstitution buffer) in the Promega ATP assay kit (G7572, Promega, […]., USA) was added, after which the emission of fluorescence was determined by measuring the absorbance at 560 nm.

[10] = tested on: AGS; experiment: Cell cycle analysis, PI staining, FACS; type: cell-based, Human; conditions: 10 μM gossypol, 24 hours
Description: (§5) Each of the 6 different stomach cancer cells lines (MKN28, MKN45, AGS, SNU668, Kato3 and HS746T) (1×10^3 to 1×10^4 cells/well), described in Example 1-1 above, was cultured in a 100 mm culture dish for 24 hours, and treated with 0 or 10 μM of gossypol, and then further cultured for 24 hours. The cells treated with gossypol were harvested, fixed with 70% ethanol, washed with cold 1×PBS, and then stained with PI+RNase solution (DPBS, pH 7.4) in a dark room for 30 minutes. The cells were subjected to fluorescence activated cell sorting (FACS), and the percentage of each cell cycle was analyzed based on the content of DNA.

[11] = tested on: HS746T; experiment: Cell cycle analysis, PI staining, FACS; type: cell-based, Human; conditions: 10 μM gossypol, 24 hours
Description: as §5

[12] = tested on: MKN28; experiment: Cell cycle analysis, PI staining, FACS; type: cell-based, Human; conditions: 10 μM gossypol, 24 hours
Description: as §5

[13] = tested on: MKN45; experiment: Cell cycle analysis, PI staining, FACS; type: cell-based, Human; conditions: 10 μM gossypol, 24 hours
Description: as §5

[14] = tested on: MKN-1; experiment: Proliferation inhibition of stomach cancer stem cells, sulforhodamine B assay; type: cell-based; conditions: Homo sapiens; MKN-1 stomach cancer stem cells; 48 hours; read-out: IC50 concentration
Description: as §1

[15] = tested on: SNU-484; experiment: as above; type: cell-based; conditions: SNU-484 stomach cancer stem cells; 48 hours; read-out: IC50 concentration
Description: as §1

[16] = tested on: common stomach cancer cells (MKN-74 and AGS); experiment: Proliferation inhibition, average over common stomach cancer cells; type: cell-based; conditions: Homo sapiens; average of MKN-74 and AGS; read-out: IC50 concentration, average
Description: as §1

[17] = tested on: SAGS (selected AGS); experiment: Proliferation inhibition, selected AGS cells with the nature of cancer stem cells; type: cell-based; conditions: Homo sapiens, read-out: IC50 concentration
Description: as §1, §2

[18] = tested on: AGS; experiment: Proliferation inhibition of common stomach cancer cells, sulforhodamine B assay; type: cell-based; conditions: Homo sapiens, 48 hours, read-out: IC50 concentration
Description: as §1

[19] = tested on: MKN-74; experiment: as above; type: cell-based; conditions: Homo sapiens; MKN-74 common stomach cancer cells; 48 hours; read-out: IC50 concentration
Description: as §1

[20] = tested on: MKN28 (moderately differentiated cells); experiment: Cell death, Annexin V+PI staining, FACS; type: cell-based, Human
Description: (§6) Each of MKN28 (moderately differentiated cells) and MKN45 (poorly differentiated cells) cell lines (1×10^3 to 1×10^4 cells/plate), described in Example 1-1 above, was cultured in a 100 mm culture dish for 24 hours, and treated with 0, 5, 10 or 20 μM of gossypol, and then diluted in 400 μl of binding buffer (0.1 M Hepes, pH 7.4, 1.4 M NaCl, and 25 mM CaCl2)). The control cells treated with 0 μM of gossypol were divided into four groups which were not stained, stained with Annexin V, stained with PI (propidium iodide) and stained with Annexin V+PI, respectively, and the cells treated with 5, 10 or 20 μM of gossypol were stained with Annexin V+PI. Staining of the cells was performed in a dark room for 10 minutes. The stained cells were subjected to fluorescence activated cell sorting (FACS), thereby determining the ratio of dead cells to total cells. The results are shown in FIGS. 3 and 4 (BD Biosciences, #556547).

[21] = tested on: MKN45 (poorly differentiated cells); experiment: Cell death, Annexin V+PI staining, FACS; type: cell-based, Human
Description: as §6

What does the source list for `Cc1cc2c(C(C)C)c(O)c(O)c(C=O)c2c(O)c1-c1c(C)cc2c(C(C)C)c(O)c(O)c(C=O)c2c1O` [gossypol]?
IC50 [1]: 4.2 µM; IC50 [2]: 2.65 µM; GI50 [3]: 6.43 µM; GI50 [4]: 3.15 µM; GI50 [5]: 9.89 µM; GI50 [6]: 4.11 µM; GI50 [7]: 5.32 µM; GI50 [8]: 4.65 µM; ATP synthesis [9]: inhibited in proportion to the concentration of gossypol; sum of sub G1 and GO/G1 compared to before treatment [10]: increased; sum of sub G1 and GO/G1 compared to before treatment [11]: increased; sum of sub G1 and GO/G1 compared to before treatment [12]: decreased; sum of sub G1 and GO/G1 compared to before treatment [13]: increased; IC50 [14]: 2.6 µM; IC50 [15]: 2.7 µM; IC50 [16]: 5.05 µM; IC50 [17]: 2.8 µM; IC50 [18]: 4.5 µM; IC50 [19]: 5.6 µM; cell death percentage ([20]; 5 μM gossypol): 17.72%; cell death percentage ([20]; 10 μM gossypol): 28.85%; cell death percentage ([20]; 20 μM gossypol): 55.62%; cell death percentage ([21]; 5 μM gossypol): 45.75%; cell death percentage ([21]; 10 μM gossypol): 65.8%; cell death percentage ([21]; 20 μM gossypol): 82.22%
